This is an account of results in patent publication US4770997A, “Thermostable bilirubin oxidase and production process thereof” (Toyo Jozo Co., Ltd., priority 1985, dated 1988).

In experiment [1] the test system is Bacillus licheniformis B-0891 (FERM BP-952) bilirubin oxidase (Invention Sample). In words: Km value of the thermostable bilirubin oxidase of this invention. Type of experiment: biochemical. The following applies: at pH 8.0; substrate bilirubin. The method, then: A reaction mixture (1.49 ml) of the above composition was placed in a small test tube. After heating it to 37° C., 0.01 ml of a 10 mM bilirubin solution was added to initiate the reaction. They were reacted at 37° C. for 10 minutes. After the reaction, 1.5 ml of 1% CPC (N-cetylpyridinium chloride) was added to terminate the reaction and the reaction mixture was subjected to the colorimetric analysis at 453 nm to determine its absorbance [S]. On the other hand, as a blank, a reaction mixture (1.44 ml) of the same type as the above-employed reaction mixture except for the exclusion of the enzyme solution was added with 0.01 ml of the bilirubin solution. The resultant mixture was incubated at 37° C. for 10 minutes precisely. Thereafter, 1.5 ml of 1% CPC and 0.05 ml of the bilirubin oxidase solution were added successively. The thus-prepared mixture was subjected to the colorimetric analysis at 453 nm to determine its absorbance [B]. The enzymatic activity is calculated in accordance with the following equation: [formula] wherein 1 unit (U) of the enzymatic activity is defined as the amount of enzyme which oxidizes 1 μmol of bilirubin per minute under the above-described conditions.

The target in experiment [2] is T1, bilirubin oxidase originated from Myrothecium (Prior Art Sample No. 3) (Albifimbria verrucaria, UniProt Q12737).
T1 sequence (Q12737 39-572): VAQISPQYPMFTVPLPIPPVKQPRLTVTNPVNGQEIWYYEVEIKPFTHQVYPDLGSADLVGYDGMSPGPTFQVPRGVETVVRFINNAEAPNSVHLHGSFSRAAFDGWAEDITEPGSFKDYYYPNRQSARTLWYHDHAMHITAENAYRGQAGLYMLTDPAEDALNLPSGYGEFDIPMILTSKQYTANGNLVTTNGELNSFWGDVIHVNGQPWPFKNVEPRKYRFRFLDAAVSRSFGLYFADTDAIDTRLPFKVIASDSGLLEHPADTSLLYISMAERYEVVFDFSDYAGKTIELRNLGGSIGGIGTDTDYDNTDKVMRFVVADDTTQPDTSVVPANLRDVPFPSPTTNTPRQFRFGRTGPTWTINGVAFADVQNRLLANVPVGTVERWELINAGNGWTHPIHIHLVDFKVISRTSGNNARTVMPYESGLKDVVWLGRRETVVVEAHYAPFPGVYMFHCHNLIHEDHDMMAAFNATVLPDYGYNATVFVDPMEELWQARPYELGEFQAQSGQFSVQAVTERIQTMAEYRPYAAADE
The following applies: Prior Art Sample No. 3, originated from Myrothecium; substrate bilirubin; cited from earlier work.

As to `C=CC1=C(C)/C(=C/c2[nH]c(Cc3[nH]c(/C=C4\NC(=O)C(C)=C4C=C)c(C)c3CCC(=O)O)c(CCC(=O)O)c2C)NC1=O` [Bilirubin], the results for the Km in experiment [1] and in experiment [2] were 28.6 µM and 190 µM, respectively.
